Several values for one entry are separate records, joined by “and”; a condition that tells them apart may be missing. Equal values may be shown once. Read-outs that look alike come from different tables or passages of the source.
How the values were obtained:
MCF-7 = assay: MTT cytotoxicity assay against breast cancer cell line MCF-7; conditions: for IC50: Homo sapiens
Description: All our newly synthesized hybrids were evaluated for their in vitro anticancer activity by the standard MTT assay against a breast cancer cell line (MCF-7). MTT is a calorimetric assay which relies on the ability of live tumor cells to reduce yellow MTT (3-(4,5-dimethylthiazol-2-yl)-2,5-diphenyltetrazolium bromide) to purple formazan by mitochondrial dehydrogenases, then added DMSO to dissolve the purple formazan and quantified by measuring absorbance at a certain wavelength. The dose response curve for compounds-treated vs. untreated cells is used to quantify the amount of formazan produced to report on the effectiveness of the compounds. […] Cell line: Mammary gland breast cancer (MCF-7). The cell line was obtained from ATCC via Holding company for biological products and vaccines (VACSERA), Cairo, Egypt. […] The cell line elucidated above were used to determine the inhibitory effects of compounds on cell growth using the MTT assay. […] After incubation, the cells were treated with different concentrations of compounds and incubated for an additional 24 h. After 24 h of drug treatment, 20 µL of MTT solution at 5 mg/mL was added and incubated for 4 h. […] The relative cell viability in percentage was calculated as (A570 of treated samples/A570 of the untreated sample) × 100 [48].

[1] = In vitro cytotoxicity against normal Human lung fibroblast (WI38) cell line; assay type: cell-based; conditions: human, WI38 normal lung fibroblast cells
WI38 = assay: as above; assay type: cell-based
MCF-7 cells [2] = assay: Cell cycle distribution / DNA content by flow cytometry; assay type: cell-based, human; conditions: MCF-7, 2 µM, 24 h
MCF-7 cells [3] = assay: Annexin V-FITC/PI dual staining apoptosis assay; assay type: cell-based, human; conditions: MCF-7, 2 µM, 24 h
Description: This assay was performed using a breast MCF-7 cell line to determine the percentage of apoptosis induced by compound 8, in which MCF-cells were incubated with compound 8 at 2 µM concentration for 24 h.
Apoptosis detection was performed by using Annexin V-FITC and PI apoptosis kit (eBioscience^TM, San Diego, CA, USA). Mcf cells were plated at a 600,000 cells/mL density onto a six well plate. After 24 h of incubation, the cells were treated with compound 8 at […]. Cells grown in media containing an equivalent amount of DMSO served as solvent control. After 24 h, the cells were stained with an Annexin V-FITC conjugate and propidium iodide (PI), and the percentage of apoptotic, necrotic, and living cells was determined according to the protocol provided by the Annexin V-FITC and PI apoptosis kit. The cells’ emitted fluorescence was analyzed by flow cytometry (NovoCyte, ACEA Biosciences Inc., San Diego, CA, USA) through the NovoExpress 1.3.0 software (ACEA Biosciences Inc., San Diego, CA, USA), acquiring 1 × 104 events per sample using the population plot “dot plot”, where each point corresponds to a single event with a specific fluorescence signal about the axes; Annexin V-FITC green fluorescence in abscissa vs. PE red fluorescence inordinate.

BAX = BAX level by ELISA in MCF-7 cells; assay type: cell-based, human
Description: (§1) Apoptosis can be excited by different stimuli via intrinsic and extrinsic pathways. It was reported that pin 1 inhibition involving apoptosis was performed via intrinsic mitochondrial l) pathways. […] The Bax/Bcl-2 ratio plays an important role in controlling the release of mitochondrial cytochrome c, after its release to the cytosol, caspase 9 is activated which can mediate downstream caspase activation including: caspase-3, caspase-6, and caspase-7 that obligated cells to apoptosis. Based on the above, we examined compound 8 capability to trigger intrinsic apoptotic pathways by affecting the expression of these markers in MCF-7 cells. […] In addition, it elevated the level of cytochrome C by about 2.49-fold compared to the control. […]
(§2) The level of BAX, Bcl-2, cytochrome C, and caspases 6, 7, and 9 were estimated using ELISA colorimetric kits; for BAX (DRG® Human Bax ELISA, EIA-4487), Bcl-2 (Zymed® Bcl-2 ELISA Kit), cytochrome c (Abcam cytochrome c Human ELISA kit, ab119521), caspase-6 (Human CASP6, ELISA Kit, MBS2533323), caspase-7 (Caspase-7 (Human) ELISA Kit, E4295-100), caspase-9 (DRG® Caspase-9 (human) ELISA, EIA-4860). […] This lysate was diluted in Standard Diluent Buffer all over the assay, then by using a microplate reader set at 450 nm, the optical density of each well was determined within 30 min to determine the human active BAX, Bcl-2, cytochrome C, caspases 6, 7 and 9 content.

Bcl-2 = Bcl-2 level by ELISA in MCF-7 cells; assay type: cell-based, human
Description: as §1, §2

cytochrome C = assay: Cytochrome c level by ELISA in MCF-7 cells; assay type: cell-based, human
Description: as §1, §2

caspase-6 = assay: Caspase-6 level by ELISA in MCF-7 cells; assay type: cell-based, human; conditions: mean ± SD of three experiments
Description: as §1, §2

caspase-7 = assay: Caspase-7 level by ELISA in MCF-7 cells; assay type: cell-based, human
Description: as §1, §2

caspase-9 = assay: Caspase-9 level by ELISA in MCF-7 cells; assay type: cell-based, human
Description: as §1, §2

ROS in MCF-7 cells = assay: Intracellular ROS accumulation assay (Human ROS ELISA Kit); assay type: cell-based
From the text: Reactive oxygen species (ROS) are chemically reactive species containing oxygen atoms including peroxides, superoxide, and hydroxyl radicals. They play an important role in the activation of apoptosis under physiological or pathological conditions. Direct or indirect ROS action can mediate the release of mitochondrial cytochrome c which trigger the induction of caspase. The intracellular level of ROS was estimated by The Human ROS ELISA Kit, which is based on standard sandwich enzyme-linked immunosorbent assay technology.
The Human ROS ELISA Kit is based on standard sandwich enzyme-linked immunosorbent assay technology. In which, the anti-Human ROS specific antibody has been pre-coated onto a 96-well plate and the human ROS present in the standards/samples bind to the capture antibody. Then biotinylated anti-Human ROS detection antibody is added to form an Ab-Ag-Ab sandwich. After a washing step, streptavidin-HRP is added and the unbound conjugate is removed with wash buffer. Subsequently, the addition of HRP substrate, TMB, results in the production of a blue-colored product that changes to yellow after the addition of acidic Stop Solution, and the density of yellow color is directly proportional to the amount of Human ROS captured on the plate. […] After that adding 90 μL TMB substrate, incubating 15–30 min at 37 °C, adding 50 μL Stop Solution and reading at 450 nm immediately. […]

Pin1 = Pin1 (Homo sapiens, UniProt Q13526); assay: Pin1 inhibition assay (SensoLyte Green Pin1 Assay Kit); assay type: biochemical; design: purchased; conditions: means ± SD of three experiments
Description: The ability of the synthesized compounds to inhibit the Pin1 activity was evaluated using the SensoLyte® Green Pin1 Assay Kit. This assay is based on using a fluorogenic substrate which was pretreated to convert it into the cis isomer. Pin1 can change this substrate into the trans isomer that is easily cleaved to generate a fluorescent signal.

Sequence of Pin1 (Q13526 whole entry): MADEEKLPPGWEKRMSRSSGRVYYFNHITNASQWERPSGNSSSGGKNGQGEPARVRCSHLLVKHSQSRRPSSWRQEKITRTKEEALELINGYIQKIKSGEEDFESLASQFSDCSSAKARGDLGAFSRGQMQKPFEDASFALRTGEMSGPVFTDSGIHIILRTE

With CN(C)c1ccc(C2CC(c3nc4cc(Cl)c(Cl)cc4[nH]3)=NO2)cc1 (stereo not shown) [Compound 8, 4-(3-(5,6-Dichloro-1H-benzo[d]imidazol-2-yl)-4,5-dihydroisoxazol-5-yl)-N,N-dimethylaniline] the IC50 (MCF-7; MCF7, 24 h, read-out: In Vitro Cytotoxicity IC50 MCF-7, MTT assay, 24 h treatment) was 8.7 ± 0.6 µM, the IC50 (MCF-7; MCF7, read-out: IC50 against breast cancer cell line (MCF-7), MTT assay, section 2.2) was 8.76 µM and the “Cytotoxic activity class against MCF-7” value (MCF-7; class by IC50) was “very strong (1–10 (very strong))”. For the same compound, the IC50 at 24 h [1] was 71.6 µM, the IC50 (WI38) was 71.6 ± 4 µM and the “DNA Content %G0-G1” value (MCF-7 cells [2]) was 44.29%. The “DNA Content %G2-M” value (MCF-7 cells [2]) was 6.45%, the “DNA Content %Pre G1” value (MCF-7 cells [2]) was 38.25% and the “DNA Content %S” value (MCF-7 cells [2]) was 49.26%. The “Apoptosis Early” value (MCF-7 cells [3]) was 3.7% and 3.71%, the “Apoptosis Late” value (MCF-7 cells [3]) was 15.32% and the “Apoptosis Total” value (MCF-7 cells [3]) was 38.25%. For the same compound, the “Increase of apoptosis (15.32%) over untreated cells” value (MCF-7 cells [3]) was 128 fold, the Necrosis (MCF-7 cells [3]) was 19.22% and the “Increase of Bax level compared to the control” value (BAX) was 4.63 fold. For the same compound, the BAX level (BAX; mean ± SD of three experiments) was 268.71 ± 9.20 pg/mL, the “Decrease of Bcl-2 level compared to the control” value (Bcl-2) was 39% and the BCL-2 level (Bcl-2; mean ± SD of three experiments) was 2.81 ± 0.07 ng/mL. The “Elevation of cytochrome C level compared to the control” value (cytochrome C) was “about 2.49 fold”, the Cytoc level (cytochrome C; mean ± SD of three experiments) was 0.62 ± 0.02 ng/mL and the Casp.6 level (caspase-6) was 0.48 ± 0.02 ng/mL. For the same compound, the “Enhancement of caspase 7 level compared to the control” value (caspase-7) was roughly 9.06 fold, the Casp.7 level (caspase-7; mean ± SD of three experiments) was 4.17 ± 0.11 ng/mL and the “Enhancement of caspase 9 level compared to the control” value (caspase-9) was roughly 8.97 fold. For the same compound, the Casp.9 level (caspase-9; mean ± SD of three experiments) was 20.86 ± 0.73 ng/mL, the “ROS accumulation higher than the control cells” value (ROS in MCF-7 cells) was 1.258 fold and the melting point was 155 to 158 °C. For the same compound, the IC50 (Pin1) was 0.00076 ± 4e-05 µM.

Reference: article PMC9414874, “New Benzimidazoles Targeting Breast Cancer: Synthesis, Pin1 Inhibition, 2D NMR Binding, and Computational Studies” (Molecules, 2022)
